Data from US20210052719A1, “A UNIVERSAL VACCINE AGAINST INFLUENZA” (Development Center for Biotechnology, priority 2017, published 2021).
No end group written: not given here.

Key:
[1] = tested on: H7 subtype of hemagglutinin; assay type: binding, influenza virus
[2] = antibody generation by immunizing mice with peptide, serum IgG by ELISA; assay type: in vivo, BALB/c and C57BL/6 mice; conditions: for induction of antibody (specific anti-JJ IgG): 5 μg, 15 μg, or 45 μg dose, ELISA with JJ peptide coated, FIG. 2A, 2B
Protocol: In this example, the peptide antigens in accordance with embodiments of the invention were used to induce antibody formation in mice. BALB/c and C57BL/6 mice (6-8 weeks old) were obtained from BioLASCO Taiwan (Taipei, Taiwan) or National Laboratory Animal Center (Taipei, Taiwan).
[…] Each group of mice was injected with a different peptide (Exp0-Exp5) solution as an antigen. For the first immunization, each mouse was given a subcutaneous injection with 100 μL (containing […] each) of the above prepared antigen solution.
The second injection was given 10-14 days after the first injection. The solution for the second injection was prepared by mixing each peptide (6 different peptides, Exp0-Exp5, each at 1:1 mix) in Freund's incomplete adjuvant. The injections were repeated for subsequent immunizations every 10-14 days after the previous injections until antibodies could be detected in sera, which took from 3-6 injections.
Mouse sera were collected at the following time points: preimmunization and at the middle time point between two adjacent injections. Once the antibodies became detectable in sera, the serum collections were performed every two weeks until antibodies could no longer be detected, which typically took about half a year. The serum collections were performed from the cheeks of the mice. Each time, 100 uL or less of blood was collected and the collection frequency was about once every two weeks. At the end of the experiments, mice were euthanized with carbon dioxide.
Antibody titers were determined using ELISA. First, a capture antibody (e.g., JJ peptide or various subtypes of hemagglutinins or fragments thereof) was coated on a 96-well microplate (100 μL per well of the diluted capture antibody). The plate was sealed and incubated at 4° C. overnight. Then, 100 μL of sample (e.g., antiserum) or standards in sample dilution buffer were added per well. […]
(§1) After the reaction, 50 μL of stop solution (acid solution) was added to each well. Then, the optical density of each well was measured immediately, using a microplate reader set to 450 nm.

[3] = tested on: influenza viruses of the H1 subtype; parameters: species or system influenza virus
[4] = tested on: influenza viruses of the H3 subtype; parameters: species or system influenza virus
JJ peptide = assay: ELISA cross-reaction of induced IgGs with JJ peptide coated on plate; assay type: binding; conditions: IgGs induced by the peptide, FIG. 2A, 2B
Protocol: (§2) Antibody titers were determined using ELISA. First, a capture antibody (e.g., JJ peptide or various subtypes of hemagglutinins or fragments thereof) was coated on a 96-well microplate (100 μL per well of the diluted capture antibody). The plate was sealed and incubated at 4° C. overnight. Then, 100 μL of sample (e.g., antiserum) or standards in sample dilution buffer were added per well. The plate was sealed and incubated at room temperature for 1 hr.
(§3) After incubation, 100 μL of a detection antibody (e.g., a horseradish peroxidase (HRP) coupled antibody), diluted in antibody dilution buffer, was added to each well. The plate was sealed and incubated at room temperature for 1 hr. Then, 200 μL of substrate solution (3,3′,5,5′-tetramethylbenzidine (TMB)) was added to each well. The reaction mixtures were incubated for 20 minutes at room temperature, without exposing the plate to direct light.
as §1

[5] = tested on: influenza viruses of the H5 subtype; parameters: species or system influenza virus
[6] = tested on: H5 subtype of hemagglutinin; assay type: binding, influenza virus
[7] = tested on: H3 subtype of hemagglutinin; assay: ELISA antibody titers against hemagglutinin subtypes; assay type: binding, influenza virus; conditions: FIG. 3
Protocol: as §2, §3, §1

[8] = tested on: H1 subtype of hemagglutinin; assay: as above; assay type: binding, influenza virus; conditions: FIG. 3
Protocol: as §2, §3, §1

protease = conditions: phenylalanine residues of JJ substituted

| Sequence | reaction of antibodies generated with the peptide with hemagglutinin [1] | induction of antibody (specific anti-JJ IgG) [2] | inhibition of hemagglutination by induced antibodies [3] | inhibition of hemagglutination by induced antibodies [4] | binding of induced IgGs to JJ peptide (cross-reaction) (JJ peptide) | inhibition of hemagglutination by induced antibodies [5] | reaction of antibodies generated with the peptide with hemagglutinin [6] | reaction of antibodies generated with the peptide with hemagglutinin [7] | reaction of antibodies generated with the peptide with hemagglutinin [8] | protease resistance (protease) | induction of antibody (specific anti-JJ3 IgG) ([2]; higher doses (15 μg and 45 μg), ELISA with peptide JJ-3 coated, FIG. 2C) |
| --- | --- | --- | --- | --- | --- | --- | --- | --- | --- | --- | --- |
| GLFGAIAGFIE [JJ] | reacted | induced antibody (IgG) production | able to inhibit hemagglutination | able to inhibit hemagglutination | bind the JJ peptide | able to inhibit hemagglutination | reacted | reacted | reacted |  |  |
| GLHGAIAGLIENGW [JJ-4] |  |  |  |  |  |  |  |  |  | protease-resistant |  |
| GLLGAIAGPIEF [JJ-1] | reacted | efficiently induce IgG production | able to inhibit hemagglutination | able to inhibit hemagglutination | bind the JJ peptide | able to inhibit hemagglutination | reacted | reacted | reacted | protease-resistant |  |
| GLLGAIAGPIEGGW [JJ-3] |  |  |  |  |  |  |  |  |  | protease-resistant | induced the production of specific anti-JJ3 antibodies |
| GLMGAIAGPIEF [JJ-2] |  |  |  |  |  |  |  |  |  | protease-resistant |  |
